Experimental data: patent publication US8476264B2, “N-(3-(2-amino-6,6-difluoro-4,4A,5,6,7,7A-hexahydro-cyclopenta[E][1,3]oxazin-4-yl)-phenylamides as BACE1 inhibitors” (Hoffmann-La Roche Inc., priority 2011, dated 2013)

Target: T1, BACE1 (Homo sapiens, UniProt P56817)
T1 construct: Human HEK293 cells which are stably transfected with a vector expressing a cDNA of the human APP wt gene (APP695); endogenous in cells; host or cells: HEK293 stably transfected with human APP695 wt
Assay: Cellular Aβ-lowering assay (Aβ40 ELISA)
Assay type: cell-based
Settings: HEK293 cells stably expressing human APP wt (APP695); Aβ40 in supernatant after 18-20 hrs; read-out: BACE1 cell act. Aβ40 IC50
Protocol: Cellular Aβ-Lowering Assay:
Human HEK293 cells which are stably transfected with a vector expressing a cDNA of the human APP wt gene (APP695) were used to assess the potency of the compounds in a cellular assay. The cells were seeded in 96-well microtiter plates in cell culture medium (Iscove, plus 10% (v/v) fetal bovine serum, glutamine, penicillin/streptomycin) to about 80% confluence and the compounds were added at a 10× concentration in 1/10 volume of medium without FCS containing 8% DMSO (final concentration of DMSO was kept at 0.8% v/v). After 18-20 hrs incubation at 37° C. and 5% CO2 in a humidified incubator the culture supernatant was harvested for the determination of Aβ40 concentrations. 96 well ELISA plates (e.g., Nunc MaxiSorb) were coated with monoclonal antibody which specifically recognize the C-terminal end of Aβ40 (Brockhaus et al., NeuroReport 9, 1481-1486; 1998). After blocking of non-specific binding sites with e.g. 1% BSA and washing, the culture supernatants were added in suitable dilutions together with a horseradish peroxidase-coupled Aβ detection antibody (e.g., antibody 4G8, Senetek, Maryland Heights, Mo.) and incubated for 5 to 7 hrs. Subsequently the wells of the microtiter plate were washed extensively with Tris-buffered saline containing 0.05% Tween 20 and the assay was developed with tetramethylbenzidine/H2O2 in citric acid buffer. After stopping the reaction with one volume 1 N H2SO4 the reaction was measured in an ELISA reader at 450 nm wavelength. The concentrations of Aβ in the culture supernatants were calculated from a standard curve obtained with known amounts of pure Aβ peptide.

T1 sequence (P56817 46-501): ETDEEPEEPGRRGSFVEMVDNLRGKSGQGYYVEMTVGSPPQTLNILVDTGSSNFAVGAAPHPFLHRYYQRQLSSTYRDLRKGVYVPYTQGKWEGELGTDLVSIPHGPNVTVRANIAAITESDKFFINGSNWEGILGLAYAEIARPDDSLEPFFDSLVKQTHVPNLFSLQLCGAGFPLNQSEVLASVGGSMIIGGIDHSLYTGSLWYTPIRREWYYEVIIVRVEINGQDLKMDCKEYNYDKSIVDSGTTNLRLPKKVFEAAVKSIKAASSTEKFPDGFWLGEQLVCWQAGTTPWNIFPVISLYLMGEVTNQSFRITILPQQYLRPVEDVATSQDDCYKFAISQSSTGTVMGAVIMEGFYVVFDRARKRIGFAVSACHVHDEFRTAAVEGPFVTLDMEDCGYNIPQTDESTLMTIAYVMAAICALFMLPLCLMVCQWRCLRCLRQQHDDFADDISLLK

Compound | IC50
NC1=N[C@@](c2cc(NC(=O)c3nn(C(F)F)cc3Cl)ccc2F)(C(F)F)[C@H]2CC(F)(F)C[C@H]2O1 [Example 43, 4-Chloro-1-difluoromethyl-1H-pyrazole-3-carboxylic acid [(S)-3-((1R,2R)-2-amino-4-difluoromethyl-6,6-difluoro-4,4a,5,6,7,7a-hexahydro-cyclopenta[e][1,3]oxazin-4-yl)-4-fluoro-phenyl]-amide] | 5.5 nM
NC1=N[C@](CF)(c2cc(NC(=O)c3ccc(OCC(F)(F)C(F)F)cn3)ccc2F)[C@H]2CC(F)(F)C[C@H]2O1 [Example 11, 5-(2,2,3,3-Tetrafluoro-propoxy)-pyridine-2-carboxylic acid [(S)-3-((1R,2R)-2-amino-6,6-difluoro-4-fluoromethyl-4,4a,5,6,7,7a-hexahydro-cyclopenta[e][1,3]oxazin-4-yl)-4-fluoro-phenyl]-amide] | 14 nM
NC1=N[C@](CF)(c2cc(NC(=O)c3ccc(OCC4CC4)cn3)ccc2F)[C@H]2CC(F)(F)C[C@H]2O1 [Example 12, 5-Cyclopropylmethoxy-pyridine-2-carboxylic acid [(S)-3-((1R,2R)-2-amino-6,6-difluoro-4-fluoromethyl-4,4a,5,6,7,7a-hexahydro-cyclopenta[e][1,3]oxazin-4-yl)-4-fluoro-phenyl]-amide] | 8.6 nM
NC1=N[C@@](c2cc(NC(=O)c3cnc(C(F)F)cn3)ccc2F)(C(F)F)[C@H]2CC(F)(F)C[C@H]2O1 [Example 40, 5-Difluoromethyl-pyrazine-2-carboxylic acid [(S)-3-((1R,2R)-2-amino-4-difluoromethyl-6,6-difluoro-4,4a,5,6,7,7a-hexahydro-cyclopenta[e][1,3]oxazin-4-yl)-4-fluoro-phenyl]-amide] | 44 nM
NC1=N[C@](CF)(c2cc(NC(=O)c3cnc(OCC(F)F)cn3)ccc2F)[C@H]2CC(F)(F)C[C@H]2O1 [Example 23, 5-(2,2-Difluoro-ethoxy)-pyrazine-2-carboxylic acid [(S)-3-((1R,2R)-2-amino-6,6-difluoro-4-fluoromethyl-4,4a,5,6,7,7a-hexahydro-cyclopenta[e][1,3]oxazin-4-yl)-4-fluoro-phenyl]-amide] | 7.8 nM
CC#CCOc1ccc(C(=O)Nc2ccc(F)c([C@@]3(CF)N=C(N)O[C@@H]4CC(F)(F)C[C@@H]43)c2)nc1 [Example 5, 5-But-2-ynyloxy-pyridine-2-carboxylic acid [(S)-3-((1R,2R)-2-amino-6,6-difluoro-4-fluoromethyl-4,4a,5,6,7,7a-hexahydro-cyclopenta[e][1,3]oxazin-4-yl)-4-fluoro-phenyl]-amide] | 0.8 nM
COc1cnc(C(=O)Nc2ccc(F)c([C@@]3(CF)N=C(N)O[C@@H]4CC(F)(F)C[C@@H]43)c2)cn1 [Example 30, 5-Methoxy-pyrazine-2-carboxylic acid [(S)-3-((1R,2R)-2-amino-6,6-difluoro-4-fluoromethyl-4,4a,5,6,7,7a-hexahydro-cyclopenta[e][1,3]oxazin-4-yl)-4-fluoro-phenyl]-amide] | 7.6 nM
N#Cc1cnc(C(=O)Nc2ccc(F)c([C@@]3(CF)N=C(N)O[C@@H]4CC(F)(F)C[C@@H]43)c2)c(Cl)c1 [Example 19, 3-Chloro-5-cyano-pyridine-2-carboxylic acid [(S)-3-((1R,2R)-2-amino-6,6-difluoro-4-fluoromethyl-4,4a,5,6,7,7a-hexahydro-cyclopenta[e][1,3]oxazin-4-yl)-4-fluoro-phenyl]-amide] | 5.5 nM
NC1=N[C@](CF)(c2cc(NC(=O)c3ccc(Cl)cn3)ccc2F)[C@H]2CC(F)(F)C[C@H]2O1 [Example 4, 5-Chloro-pyridine-2-carboxylic acid [(S)-3-((1R,2R)-2-amino-6,6-difluoro-4-fluoromethyl-4,4a,5,6,7,7a-hexahydro-cyclopenta[e][1,3]oxazin-4-yl)-4-fluoro-phenyl]-amide] | 2 nM
NC1=N[C@](CF)(c2cc(NC(=O)c3cnc(OCC4CC4)cn3)ccc2F)[C@H]2CC(F)(F)C[C@H]2O1 [Example 25, 5-Cyclopropylmethoxy-pyrazine-2-carboxylic acid [(S)-3-((1R,2R)-2-amino-6,6-difluoro-4-fluoromethyl-4,4a,5,6,7,7a-hexahydro-cyclopenta[e][1,3]oxazin-4-yl)-4-fluoro-phenyl]-amide] | 15 nM
NC1=N[C@](CF)(c2cc(NC(=O)c3cnc(Cl)cn3)ccc2F)[C@H]2CC(F)(F)C[C@H]2O1 [Example 27, 5-Chloro-pyrazine-2-carboxylic acid [(S)-3-((1R,2R)-2-amino-6,6-difluoro-4-fluoromethyl-4,4a,5,6,7,7a-hexahydro-cyclopenta[e][1,3]oxazin-4-yl)-4-fluoro-phenyl]-amide] | 660 nM
N#Cc1ccc(C(=O)Nc2ccc(F)c([C@@]3(CF)N=C(N)O[C@]4(CF)CC(F)(F)C[C@@H]43)c2)nc1 [Example 46, 5-Cyano-pyridine-2-carboxylic acid [3-((1R,7aR)-2-(S)-amino-6,6-difluoro-4,7a-bis-fluoromethyl-4,4a,5,6,7,7a-hexahydro-cyclopenta[e][1,3]oxazin-4-yl)-4-fluoro-phenyl]-amide] | 27 nM
NC1=N[C@@](c2cc(NC(=O)c3cnc(OC(F)F)cn3)ccc2F)(C(F)F)[C@H]2CC(F)(F)C[C@H]2O1 [Example 41, 5-Difluoromethoxy-pyrazine-2-carboxylic acid [(S)-3-((1R,2R)-2-amino-4-difluoromethyl-6,6-difluoro-4,4a,5,6,7,7a-hexahydro-cyclopenta[e][1,3]oxazin-4-yl)-4-fluoro-phenyl]-amide] | 7 nM
NC1=N[C@](CF)(c2cc(NC(=O)c3ccc(OCC(F)(F)F)cn3)ccc2F)[C@H]2CC(F)(F)C[C@H]2O1 [Example 9, 5-(2,2,2-Trifluoro-ethoxy)-pyridine-2-carboxylic acid [(S)-3-((1R,2R)-2-amino-6,6-difluoro-4-fluoromethyl-4,4a,5,6,7,7a-hexahydro-cyclopenta[e][1,3]oxazin-4-yl)-4-fluoro-phenyl]-amide] | 17 nM
NC1=N[C@](CF)(c2cc(NC(=O)c3cnc(OC(F)F)cn3)ccc2F)[C@H]2CC(F)(F)C[C@H]2O1 [Example 21, 5-Difluoromethoxy-pyrazine-2-carboxylic acid [(S)-3-((1R,2R)-2-amino-6,6-difluoro-4-fluoromethyl-4,4a,5,6,7,7a-hexahydro-cyclopenta[e][1,3]oxazin-4-yl)-4-fluoro-phenyl]-amide] | 0.9 nM
NC1=N[C@](CF)(c2cc(NC(=O)c3ncc(C(F)(F)F)cc3Cl)ccc2F)[C@H]2CC(F)(F)C[C@H]2O1 [Example 16, 3-Chloro-5-trifluoromethyl-pyridine-2-carboxylic acid [(S)-3-((1R,2R)-2-amino-6,6-difluoro-4-fluoromethyl-4,4a,5,6,7,7a-hexahydro-cyclopenta[e][1,3]oxazin-4-yl)-4-fluoro-phenyl]-amide] | 0.8 nM
NC1=N[C@@](c2cc(NC(=O)c3cnc(OCF)cn3)ccc2F)(C(F)F)[C@H]2CC(F)(F)C[C@H]2O1 [Example 38, 5-Fluoromethoxy-pyrazine-2-carboxylic acid [(S)-3-((1R,2R)-2-amino-4-difluoromethyl-6,6-difluoro-4,4a,5,6,7,7a-hexahydro-cyclopenta[e][1,3]oxazin-4-yl)-4-fluoro-phenyl]-amide] | 17 nM
NC1=N[C@](CF)(c2cc(NC(=O)c3ncc(F)cc3F)ccc2F)[C@H]2CC(F)(F)C[C@H]2O1 [Example 8, 3,5-Difluoro-pyridine-2-carboxylic acid [(S)-3-((1R,2R)-2-amino-6,6-difluoro-4-fluoromethyl-4,4a,5,6,7,7a-hexahydro-cyclopenta[e][1,3]oxazin-4-yl)-4-fluoro-phenyl]-amide] | 16.9 nM
NC1=N[C@](CF)(c2cc(NC(=O)c3ccc(C(F)(F)F)cn3)ccc2F)[C@H]2CC(F)(F)C[C@H]2O1 [Example 15, 5-Trifluoromethyl-pyridine-2-carboxylic acid [(S)-3-((1R,2R)-2-amino-6,6-difluoro-4-fluoromethyl-4,4a,5,6,7,7a-hexahydro-cyclopenta[e][1,3]oxazin-4-yl)-4-fluoro-phenyl]-amide] | 2.8 nM
NC1=N[C@](CF)(c2cc(NC(=O)c3ncc(Cl)cc3Cl)ccc2F)[C@H]2CC(F)(F)C[C@H]2O1 [Example 6, 3,5-Dichloro-pyridine-2-carboxylic acid [(S)-3-((1R,2R)-2-amino-6,6-difluoro-4-fluoromethyl-4,4a,5,6,7,7a-hexahydro-cyclopenta[e][1,3]oxazin-4-yl)-4-fluoro-phenyl]-amide] | 1.7 nM
NC1=N[C@](CF)(c2cc(NC(=O)c3ccc(Cl)cn3)ccc2F)[C@H]2CC(F)(F)C[C@@]2(CF)O1 [Example 47, 5-Chloro-pyridine-2-carboxylic acid [3-((1R,7aR)-2-(S)-amino-6,6-difluoro-4,7a-bis-fluoromethyl-4,4a,5,6,7,7a-hexahydro-cyclopenta[e][1,3]oxazin-4-yl)-4-fluoro-phenyl]-amide] | 85 nM
